The results in this text go back to patent EP3345917A1, “ANTIPROTOZOAL COMPOUNDS” (Bacoba AG, priority 2017, dated 2018).

Non-standard residues stand in square brackets, D forms with d. Residues, ends and D or L forms follow the SMILES beside them. *: point of attachment. X10 = O=C(c1ccccc1)[C@H]1CCCC[C@H]1C(=O)*; NH((S)CH(Me)CH2NMe2) = C[C@@H](CN(C)C)N*; Gly(octyl) = CCCCCCCC[C@H](N)C(=O)O; X3 = O=C(c1coc(-c2ccccc2)n1)*; X4 = O=C(C1CCc2ccccc2C1)*; Aib = CC(C)(N)C(=O)O; βAla = NCCC(=O)O Bounds are passed on as bounds.

Data set [1] has as its system Axenically grown Leishmania donovani amastigotes (strain MHOM/ET/67/L82). Briefly: Axenic Leishmania donovani amastigote resazurin assay. The following applies: In vitro inhibition, read-out: L.don. ax. Type of data set: cell-based. The method, boiled down:
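Strain MHOM/ET/67/L82 amastigotes grown axenically and tested in triplicate by resazurin assay. Plates developed 2-4 hours, fluorescence read at 536 nm excitation/588 nm emission and expressed as percentage of negative control.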

The test system of data set [2] is Trypanosoma brucei rhodesiense (STIB 900 strain). Kind of data set: Alamar Blue assay against Trypanosoma brucei rhodesiense grown in axenic medium. In kind it is cell-based. Conditions: In vitro inhibition, read-out: T.b.rhod. In short, it runs like this:
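T. b. rhodesiense STIB 900 cultured in axenic medium and exposed to samples in an Alamar Blue viability assay, run in triplicate. IC50 calculated from the readout; melarsoprol served as reference drug.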
On the technique in general: Alamar Blue is a resazurin reagent that responds to reducing activity.

The next data set has as its system Plasmodium falciparum. Kind of data set: 3H-hypoxanthine incorporation assay against Plasmodium falciparum. Type of data set: cell-based. Conditions: In vitro inhibition, read-out: P.falc NF5. Here is the method:
(§1) Tests were done in triplicate.
IC50 values were calculated by linear interpolation.

Data set [3] concerns intracellular Leishmania donovani (L.don. InMac). Briefly: Intracellular Leishmania donovani assay (L.don. InMac). In kind it is cell-based. Conditions: In vitro inhibition.
Description: as §1

Data set [4] is described as follows: Cytotoxicity assay on L6-cells (Alamar Blue). The following applies: rat, Cytotox L6, Cytotoxicity against rat myoblast cells (L6).
Data set [5] deals with Trypanosoma cruzi trypomastigote forms (Tulahuen strain). Kind of data set: Intracellular Trypanosoma cruzi assay in L6-cells, beta-galactosidase/CPRG readout. Type of data set: cell-based. The following applies: In vitro inhibition, read-out: T.cruzi. The method, boiled down: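 L6 rat myoblasts infected with Tulahuen C2C4 LacZ T. cruzi; after incubation, CPRG/Nonidet substrate added and colour developed 2–6 h. Absorbance at 540 nm; IC50 calculated; triplicate tests.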

With `CCCCCCCC[C@H](NC(=O)c1coc(-c2ccccc2)n1)C(=O)N[C@@H](CC(C)C)C(=O)NC(C)(C)C(=O)N[C@@H](CC(C)C)C(=O)N[C@@H](CC(C)C)C(=O)NC(C)(C)C(=O)NC(C)(C)C(=O)NCCC(=O)N[C@@H](C)CN(C)C` [Compound 5943, (2S)-N-[(1S)-1-[(1-{[(1S)-1-{[(1S)-1-{[1-({1-[(2-{[(2S)-1-(dimethylamino)propan-2-yl]carbamoyl}ethyl)carbamoyl]-1-methylethyl}carbamoyl)-1-methylethyl]carbamoyl}-3-methylbutyl]carbamoyl}-3-methylbutyl]carbamoyl}-1-methylethyl)carbamoyl]-3-methylbutyl]-2-[(2-phenyl-1,3-oxazol-4-yl)formamido]decanamide] (X3-[Gly(octyl)]L[Aib]LL[Aib][Aib][βAla]-{NH((S)CH(Me)CH2NMe2)}), the IC50 in data set [1] was 18700 nM; in data set [2] it was 0.5 nM; with Plasmodium falciparum, 15.3 nM; in data set [3] it was less than 36.1 nM; in data set [5], 156 nM. The same compound gave an IC50 at 70 h in data set [4] of 552 nM.
On to `CCCCCCCC[C@H](NC(=O)C1CCc2ccccc2C1)C(=O)N[C@@H](CC(C)C)C(=O)NC(C)(C)C(=O)N[C@@H](CC(C)C)C(=O)N[C@@H](CC(C)C)C(=O)NC(C)(C)C(=O)NC(C)(C)C(=O)NCCC(=O)N[C@@H](C)CN(C)C` (stereo partly drawn) [Compound 5944, (2S)-N-[(1S)-1-[(1-{[(1S)-1-{[(1S)-1-{[1-({1-[(2-{[(2S)-1-(dimethylamino)propan-2-yl]carbamoyl}ethyl)carbamoyl]-1-methylethyl}carbamoyl)-1-methylethyl]carbamoyl}-3-methylbutyl]carbamoyl}-3-methylbutyl]carbamoyl}-1-methylethyl)carbamoyl]-3-methylbutyl]-2-[(1,2,3,4-tetrahydronaphthalen-2-yl)formamido]decanamide] (X4-[Gly(octyl)]L[Aib]LL[Aib][Aib][βAla]-{NH((S)CH(Me)CH2NMe2)}), for which the IC50 in data set [1] was 0.6 nM; in data set [2], 0.1 nM; in the data set with Plasmodium falciparum, 42500 nM; in data set [3], less than 36.5 nM; in data set [5], 5 nM. Moreover, the IC50 at 70 h in data set [4] was 137 nM.
Turning to `CCCCCCCC[C@H](NC(=O)[C@@H]1CCCC[C@@H]1C(=O)c1ccccc1)C(=O)N[C@@H](CC(C)C)C(=O)NC(C)(C)C(=O)N[C@@H](CC(C)C)C(=O)N[C@@H](CC(C)C)C(=O)NC(C)(C)C(=O)NC(C)(C)C(=O)NCCC(=O)N[C@@H](C)CN(C)C` [Compound 5945, (2S)-2-{[(1R,2S)-2-benzoylcyclohexyl]formamido}-N-[(1S)-1-[(1-{[(1S)-1-{[(1S)-1-{[1-({1-[(2-{[(2S)-1-(dimethylamino)propan-2-yl]carbamoyl}ethyl)carbamoyl]-1-methylethyl}carbamoyl)-1-methylethyl]carbamoyl}-3-methylbutyl]carbamoyl}-3-methylbutyl]carbamoyl}-1-methylethyl)carbamoyl]-3-methylbutyl]decanamide] (X10-[Gly(octyl)]L[Aib]LL[Aib][Aib][βAla]-{NH((S)CH(Me)CH2NMe2)}), the IC50 in data set [1] was 42700 nM; in data set [2], 0.4 nM; in the data set on Plasmodium falciparum it was 42600 nM; in data set [3], less than 34.7 nM; in data set [5], 34.3 nM. This compound also displayed an IC50 at 70 h in data set [4] of 144 nM.
